Assays:
Assay type in all cases: in vivo
[1] = tested on: blood plasma testosterone level; test: Effect of various doses on blood plasma testosterone level of domestic cock (Table 1)
Text: In Table 1, the relation of the doses of the compounds of general formula (I) to the blood plasma testosterone level of the treated animals is illustrated in case of domestic cocks.

male turkey = test: Effect of interval between three intramuscular injections on sperm production of male turkey (Table 2); details: three i.m. injections, 1 μg/kg
Text: In Table 2, the influence on the sperm production of the interval kept between the consecutive treatments is shown on male turkeys.

male turkeys [2] = test: Permanent increase in sperm production of male turkeys bred on a large scale (Example 1, FIG. 4); details: 0.5 μg/kg i.m. every 2 days, 3 times
Protocol: (§1) 0.5 μg/kg of D-Phe^6 -GnRH analogue was intramuscularly administered to sexually mature male turkeys every 2 days, altogether 3 times. On the 20th day following treatment, the sperm production reached an increase of 44% and remained at a higher level, as compared to the control, for about 1 month (FIG. 4).
(§2) One month and half after the first treatment, the same animals were similarly treated with 0.5 μg/kg of (Asp-α-diethylamide)^6,desGly^10 -GnRH ethylamide analogue every 2 days, altogether 3 times.

testosterone level = test: Testosterone level of treated male turkeys (Table 3); details: Treated (n = 15)
Protocol: as §1, §2
The rise of the LH level of the blood was followed by an increase in the testosterone level (Table 3).

male turkeys [3] = test: Effect of gonadoliberin analogues on the sperm production of male turkeys (Table 5)
Text: In a further experiment, the sperm production of male turkeys was raised by administering the following four compounds: […]

bull = test: Enhancement of the sexual activity of a bull; details: 300 μg each, 3 times
Protocol: A 2-year old bull of 1010 kg weight, of breeding condition and correspondingly having a good muscular system, good leg construction and a definitely male sexual character was set to breeding in 1985. On October 16 and 23 as well as on Nov. 1, 1985 test coverings were carried out on a rutting female cattle and on a phantom bull. […] Diagnosis stated by the veterinarian specialist: importentia coeundi. The bull was treated on November 29 as well as on Dec. 2 and 4, 1986 altogether 3 times with 300 μg each of D-[…] -GnRH analogue. On Dec. […] 7, 1986. On Jan. 21, 1986 the bull sprung onto a cow being after rutting. The sexual potency of the animal was unobjectionable even after 5 weeks following the treatment.

CC(C)C[C@H](NC(=O)[C@@H](Cc1ccccc1)NC(=O)[C@H](Cc1ccc(O)cc1)NC(=O)[C@H](CO)NC(=O)[C@H](Cc1c[nH]c2ccccc12)NC(=O)[C@H](Cc1c[nH]cn1)NC(=O)[C@@H]1CCC(=O)N1)C(=O)N[C@@H](CCCNC(=N)N)C(=O)N1CCC[C@H]1C(=O)NCC(N)=O [Compound "A", D-Phe^6 -GnRH]
Testosterone level of the blood plasma ([1]; dose 0.01 μg/kg, after 0 minutes): 1.7 (0.7) ng/ml | Testosterone level of the blood plasma ([1]; dose 0.01 μg/kg, after 30 minutes): 1.6 (1.3) ng/ml | Testosterone level of the blood plasma ([1]; dose 0.01 μg/kg, after 60 minutes): 1.5 (1.0) ng/ml | Testosterone level of the blood plasma ([1]; dose 0.01 μg/kg, after 120 minutes): 1.4 (0.6) ng/ml | Testosterone level of the blood plasma ([1]; dose 0.05 μg/kg, after 0 minutes): 1.4 (0.7) ng/ml | Testosterone level of the blood plasma ([1]; dose 0.05 μg/kg, after 30 minutes): 1.7 (1.2) ng/ml | Testosterone level of the blood plasma ([1]; dose 0.05 μg/kg, after 60 minutes): 1.5 (1.2) ng/ml | Testosterone level of the blood plasma ([1]; dose 0.05 μg/kg, after 120 minutes): 1.9 (0.8) ng/ml | Testosterone level of the blood plasma ([1]; dose 0.1 μg/kg, after 0 minutes): 1.0 (0.2) ng/ml | Testosterone level of the blood plasma ([1]; dose 0.1 μg/kg, after 30 minutes): 3.4 (1.9) ng/ml | Testosterone level of the blood plasma ([1]; dose 0.1 μg/kg, after 60 minutes): 2.7 (1.1) ng/ml | Testosterone level of the blood plasma ([1]; dose 0.1 μg/kg, after 120 minutes): 2.0 (0.8) ng/ml | Testosterone level of the blood plasma ([1]; dose 0.3 μg/kg, after 0 minutes): 2.1 (0.7) ng/ml | Testosterone level of the blood plasma ([1]; dose 0.3 μg/kg, after 30 minutes): 3.9 (0.6) ng/ml | Testosterone level of the blood plasma ([1]; dose 0.3 μg/kg, after 60 minutes): 4.2 (1.2) ng/ml | Testosterone level of the blood plasma ([1]; dose 0.3 μg/kg, after 120 minutes): 2.6 (0.5) ng/ml | Testosterone level of the blood plasma ([1]; dose 0.5 μg/kg, after 0 minutes): 2.5 (1.0) ng/ml | Testosterone level of the blood plasma ([1]; dose 0.5 μg/kg, after 30 minutes): 6.5 (0.5) ng/ml | Testosterone level of the blood plasma ([1]; dose 0.5 μg/kg, after 60 minutes): 5.3 (1.2) ng/ml | Testosterone level of the blood plasma ([1]; dose 0.5 μg/kg, after 120 minutes): 3.9 (1.5) ng/ml | Testosterone level of the blood plasma ([1]; dose 1.0 μg/kg, after 0 minutes): 1.5 (0.8) ng/ml | Testosterone level of the blood plasma ([1]; dose 1.0 μg/kg, after 30 minutes): 7.2 (3.5) ng/ml | Testosterone level of the blood plasma ([1]; dose 1.0 μg/kg, after 60 minutes): 7.1 (3.6) ng/ml | Testosterone level of the blood plasma ([1]; dose 1.0 μg/kg, after 120 minutes): 3.7 (1.2) ng/ml | Testosterone level of the blood plasma ([1]; dose 3.0 μg/kg, after 0 minutes): 1.9 (0.3) ng/ml | Testosterone level of the blood plasma ([1]; dose 3.0 μg/kg, after 30 minutes): 6.2 (2.4) ng/ml | Testosterone level of the blood plasma ([1]; dose 3.0 μg/kg, after 60 minutes): 5.2 (1.7) ng/ml | Testosterone level of the blood plasma ([1]; dose 3.0 μg/kg, after 120 minutes): 3.0 (1.1) ng/ml | Testosterone level of the blood plasma ([1]; dose 5.0 μg/kg, after 0 minutes): 2.1 (1.2) ng/ml | Testosterone level of the blood plasma ([1]; dose 5.0 μg/kg, after 30 minutes): 3.6 (2.4) ng/ml | Testosterone level of the blood plasma ([1]; dose 5.0 μg/kg, after 60 minutes): 2.7 (0.6) ng/ml | Testosterone level of the blood plasma ([1]; dose 5.0 μg/kg, after 120 minutes): 1.7 (0.9) ng/ml | Sperm volume (male turkey; interval between treatments 24 hour, on day 0): 0.18 (0.05) ml | Sperm volume (male turkey; interval between treatments 24 hour, on the 20th day): 0.21 (0.10) ml | Sperm volume (male turkey; interval between treatments 48 hour, on day 0): 0.19 (0.07) ml | Sperm volume (male turkey; interval between treatments 48 hour, on the 20th day): 0.35 (0.12) ml | Sperm volume (male turkey; interval between treatments 72 hour, on day 0): 0.16 (0.08) ml | Sperm volume (male turkey; interval between treatments 72 hour, on the 20th day): 0.25 (0.11) ml | Sperm volume (male turkey; interval between treatments 144 hour, on day 0): 0.21 (0.07) ml | Sperm volume (male turkey; interval between treatments 144 hour, on the 20th day): 0.24 (0.09) ml | time sperm production remained at a higher level as compared to the control (male turkeys [2]): about 1 month | increase of sperm production (male turkeys [2]; on the 20th day following treatment): 44% | Testosterone (testosterone level; sampling May 2): 2.43 ± 1.22 ng/mL | Testosterone (testosterone level; sampling May 23): 4.06 ± 1.62 ng/mL | Sperm production (male turkeys [3]; after 30 days): 0.34 ml/animal | Sperm production (male turkeys [3]; after 60 days): 0.39 ml/animal | Sperm production (male turkeys [3]; at the beginning of the experiment): 0.27 ml/animal | sexual potency of the animal (bull; 5 weeks following the treatment): unobjectionable | covering behaviour after treatment (bull; bull with impotentia coeundi, Dec. 6, 1985): covered two times a rutting cow

Reference: patent US4751215A, “Process for increasing the sexual activity of birds and useful domestic mammals and for preparing spermatozoa suitable to their propagation” (INNOFINANCE Altalanos Innovacios Penzintezet, priority 1985, dated 1988)
